Reference: ChEMBL document CHEMBL1123324, “Basically substituted ellipticine analogues as potential antitumor agents” (1986)
Active and inactive are the calls of the source. The rule behind the calls is not given here.

Assays:
HCT-8 [1] = experiment: Inhibitory effect against HCT8 Human colon adenocarcinoma; inactive; type: functional, cell-based
L1210 [2] = experiment: Inhibitory effect against L1210 leukemia in tissue culture; type: functional; conditions: Mus musculus, read-out: ID50 (the source's name)
Nucleic Acid = experiment: Concentration at which the fluorescence of an ethidium-DNA complex was reduced by 50%; type: nucleic-acid assay
HCT-8 [3] = experiment: Inhibitory effect against HCT8 Human colon adenocarcinoma; type: functional; conditions: read-out: ID50 (the source's name)
L1210 [4] = experiment: Inhibitory effect against L1210 leukemia in tissue culture; Inactive; type: functional, cell-based; conditions: Mus musculus

| SMILES | ID50 (HCT-8 [1]) | IC50 (L1210 [2]) [nM] | C50 (Nucleic Acid) [nM] | IC50 (HCT-8 [3]) [nM] | ID50 (L1210 [4]) |
| --- | --- | --- | --- | --- | --- |
| Cc1c2cc[n+](C)cc2c(C)c2c1[nH]c1ccccc12 | inactive | 600 |  |  |  |
| Cc1c2cnccc2c(C)c2c1c1ccccc1n2C |  | 430 | 454 |  |  |
| Cc1c2ccncc2c(C)c2c1[nH]c1ccccc12 [ELLIPTECINE] |  | 100 | 1040 | 260 |  |
| CCN(CC)CC[n+]1ccc2c(C)c3[nH]c4ccccc4c3c(C)c2c1 |  | 41 | 159 | 500 |  |
| CCN(CC)C(=O)Cn1c2ccccc2c2c(C)c3cnccc3c(C)c21 |  |  |  |  | inactive |
| Cc1c2cnccc2c(C)c2c1c1ccccc1n2CCCN(C)C |  | 110 |  | 390 |  |
| CCN(CC)CCn1c2ccccc2c2c(C)c3cnccc3c(C)c21 |  | 190 | 106 | 80 |  |
| Cc1c2cnccc2c(C)c2c1c1ccccc1n2CCN1CCCCC1 |  | 170 | 122 | 82 |  |
| Cc1c2cnccc2c(C)c2c1c1ccccc1n2CCN1CCOCC1 |  | 320 | 440 | 100 |  |
